# Assay results as given in patent US8211646B1, “Methods of treating ovarian cancer by modulating SnoN” (University of South Florida, priority 2008, dated 2012).
# Peptide text beside a SMILES is read from it. * marks the point of attachment. Cbz = O=C(OCc1ccccc1)*; CH2F = FC*
# Tests used:
# Type in all cases: cell-based
# SnoN = assay: Western analysis of SnoN protein levels
# Protocol: (§1) Proteins were resolved on an 8%, 12%, or 15% SDS-PAGE gel (as appropriate) and electrophoretically transferred to polyvinyldifluoride (PVDF) membranes. After blocking with 5% (w/v) milk in TBST (Tris-Buffered Saline containing 0.1% Tween-20) for one hour at room temperature, membranes were incubated with primary antibodies (at appropriate dilution) overnight at 4° C., followed by extensive washing and incubation for 1 hour with the appropriate horseradish peroxidase-conjugated secondary antibodies (BioRad, Hercules, Calif.). Blots were washed extensively. A rabbit polyclonal EVI1 antibody was obtained (1:3000 dilution, St. Jude's Children's Hospital, Memphis, Tenn.). SnoN rabbit polyclonal (1:1000 dilution), PML, and p21 SMURF2 rabbit polyclonal (1:500 dilution), MRP1 mouse monoclonal (1:500 dilution) and GAPDH mouse monoclonal (1:250 dilution) antibodies were obtained from Santa Cruz Biotechnology (Santa Cruz, Calif.). TGFβRII rabbit polyclonal (1:1000 dilution) antibody was obtained from Strategic Diagnostics (Newark, Del.). Smad2/3 rabbit polyclonal (1:1000 dilution), Beclin-1 rabbit polyclonal (1:1000 dilution), AKT rabbit polyclonal (1:1000 dilution), TAK1 rabbit polyclonal (1:1000 dilution), PARP rabbit polyclonal (1:1000 dilution), Beclin-1 rabbit polyclonal (1:1000 dilution), caspase-3 rabbit polyclonal (1:1000) which detects the pro-caspase form, and ATG5 rabbit polyclonal (1:1000 dilution), LC3-II rabbit polyclonal (1:1000 dilution) antibodies were obtained from Cell Signaling Technology (Danvers, Mass.). The HSP27 mouse monoclonal (1:1000 dilution) antibody was obtained from Stressgen (Ann Arbor, Mich.). Blots were developed using chemiluminescence substrates (Amersham Piscataway, N.J. or BioRad, Hercules, Calif.). Monoclonal PAI-1 antibody was obtained from BD Pharmingen. PSMAD2, total SMAD2/3, p-ERK, p-AKT, and total AKT antibodies were obtained from Cell Signaling Technology. A monoclonal antibody against Arkadia was obtained from Abnova (Taiwan).
# (§2) Densitometric analysis was performed using the HP Scanjet 5590 and the Image J program (Image Processing and Analysis in Java, NIH Image Software). Bands were selected and the intensity values were normalized to those for GAPDH. The values are presented as fold-changes relative to control siRNA treated cells.
# The clinical inhibitors As2O3, geldanamycin (17-AAG) (dissolved in dimethylsulfoxide [DMSO]), and MG132 (dissolved in DMSO) were obtained from Sigma-Aldrich (St. Louis, Mo.), Fisher Scientific (Pittsburgh, Pa.), and Alexis Biochemicals (Farmingdale, N.Y.), respectively. N-acetyl-L-cysteine (NAC; dissolved in media) and Bortezomib (PS-341; dissolved in DMSO) were obtained from Fisher Scientific. 3-Methyladenine (3-MA; dissolved in media) was obtained from MP Biomedicals (Solon, Ohio). Tiron (4,5-Dihydroxy-1,3-benzenedisulfonic acid, dissolved in media) was obtained from Fisher Scientific. zVAD-fmk (dissolved in DMSO) and bafilomycin A (dissolved in DMSO) was obtained from Axxora LLC (San Diego, Calif.). Bovine catalase was obtained from Sigma-Aldrich. HBED and Mn TBAP was obtained from ENZO Life Sciences (Farmingdale, N.Y.). Ovarian cells were plated in 6-well plates at 250,000 cells per well and grown in complete medium. […] For control cells, DMSO (a final concentration of <0.5%) was added to compare appropriately to drugs dissolved in DMSO. After the appropriate incubation time (6 or 18 hours), cell lysates were collected, protein quantified, and SDS-PAGE/western analysis was performed. In addition, for selected studies, RNA was isolated, quantified, and used for qPCR analysis.
# ovarian cancer cells = assay: Cell titer glo cell viability assay; conditions: 25 μM, 18 hour treatment, relative to control cells
# Protocol: Measurement of Intracellular ATP Levels. T80, HEY, and SKOV3 ovarian cells were seeded in triplicate for each treatment group at 5000 cells per well into each well of a 96 well white-opaque plate. Following overnight cell attachment, cells were treated for 18 hours with appropriate doses of arsenic trioxide or geldanamycin (0 mM, 2 μM, 5 μM, 10 μM, 25 μM, and 50 μM). Following termination of the cell treatments, the media was removed from the wells and replaced with 100 μl of phosphate-buffered saline (PBS). The plate was equilibrated to room temperature, 100 μl of Cell-Titer Glo reagent (Promega, Madison, Wis.) was added, and mixed on a plate shaker for 2 minutes. The plate was further incubated for 10 minutes at room temperature prior to reading with a Biotek luminescence plate reader to obtain relative light unit (RLU) measurements. Empty wells (containing no cells) were utilized as a correction for background luminescence. All experiments were performed in triplicate.
# [1] = system: EVI1 forms (MDS1/EVI1, EVI1, EVI1^Del190-515)
# Protocol: as §1, §2
# (§3) The clinical inhibitors As2O3, geldanamycin (17-AAG) (dissolved in dimethylsulfoxide [DMSO]), and MG132 (dissolved in DMSO) were obtained from Sigma-Aldrich (St. Louis, Mo.), Fisher Scientific (Pittsburgh, Pa.), and Alexis Biochemicals (Farmingdale, N.Y.), respectively. N-acetyl-L-cysteine (NAC; dissolved in media) and Bortezomib (PS-341; dissolved in DMSO) were obtained from Fisher Scientific. 3-Methyladenine (3-MA; dissolved in media) was obtained from MP Biomedicals (Solon, Ohio). Tiron (4,5-Dihydroxy-1,3-benzenedisulfonic acid, dissolved in media) was obtained from Fisher Scientific. zVAD-fmk (dissolved in DMSO) and bafilomycin A (dissolved in DMSO) was obtained from Axxora LLC (San Diego, Calif.). Bovine catalase was obtained from Sigma-Aldrich. HBED and Mn TBAP was obtained from ENZO Life Sciences (Farmingdale, N.Y.). Ovarian cells were plated in 6-well plates at 250,000 cells per well and grown in complete medium. The following day, the cells were treated with 5 μM MG132, As2O3 (between 2-50 μM), 17-AAG (between 2-50 μM), NAC (Fisher Scientific, between 25 μM to 1 mM), Tiron (between 25 μM to 1 mM), 3-MA (0.1 mM to 10 mM), or zVAD-fmk (25 μM to 100 μM). For control cells, DMSO (a final concentration of <0.5%) was added to compare appropriately to drugs dissolved in DMSO. After the appropriate incubation time (6 or 18 hours), cell lysates were collected, protein quantified, and SDS-PAGE/western analysis was performed. In addition, for selected studies, RNA was isolated, quantified, and used for qPCR analysis.
# [2] = system: TAK1, SMAD2/3, TGFβRII, AKT, phospho-SMAD2; assay: Western analysis of other TGFβ signaling mediators
# Protocol: as §1, §2, §3
# [3] = system: LC3-I/LC3-II, autophagosomes; assay: Autophagy: LC3 western, EGFP-LC3 fluorescence, TEM of autophagosomes; conditions: HEY, 18 hours
# Protocol: as §1
# HEY cells were seeded onto glass coverslips and allowed to adhere following overnight incubation. The cells were then transiently transfected with EGFP-LC3 (Addgene, Cambridge, Mass.) and allowed to recover for 24 hours. The cells were treated at the appropriate concentrations of As2O3 in the absence or presence of 3-MA (5 and 10 mM), for 18 hours. The cells were then fixed in 4% paraformaldehyde in PBS for 30 minutes at room temperature, washed twice in PBS, and blocked for 1 hour at room temperature in PBS containing 5% goat serum and 0.1% Triton X-100. The cells were counterstained with Hoescht nuclear stain, washed 3 times for 5 minutes in PBS, anti-Fade containing DAPI nuclear stain was then applied, and coverslips mounted onto glass slides and viewed under a Zeiss inverted fluorescence microscope (Moffitt Cancer Center Microscopy Core).
# Autophagy induction was analyzed using electron microscopy. […] Cells were then fixed in 2.5% glutaraldehyde in 0.1M phosphate buffer overnight at 4° C. Following rinsing in buffer, cells were scraped from the culture flasks, washed, and then post-fixed in 1% osmium tetroxide in buffer. After dehydration in a graded series of acetone, the cells were embedded in Embed 812 epoxy resin. Thin sections (70 nm) were cut on an Ultramicrotome. The sections on the grids were stained with uranyl acetate and lead citrate. The sections were examined on a Transmission Electron Microscope (Morgagni 268D).
# HSP27 = assay: Western analysis of HSP27; conditions: HEY, 18 hours
# Protocol: as §1, with “The HSP27 mouse monoclonal (1:1000 dilution) antibody was obtained from Stressgen (Ann Arbor, Mich.). Blots were developed using chemiluminescence substrates (Amersham Piscataway, N.J. or BioRad, Hercules, Calif.). Monoclonal PAI-1 antibody was obtained from BD Pharmingen. PSMAD2, total SMAD2/3, p-ERK, p-AKT, and total AKT antibodies were obtained from Cell Signaling Technology. A monoclonal antibody against Arkadia was obtained from Abnova (Taiwan).” left out
# (§4) The clinical inhibitors As2O3, geldanamycin (17-AAG) (dissolved in dimethylsulfoxide [DMSO]), and MG132 (dissolved in DMSO) were obtained from Sigma-Aldrich (St. Louis, Mo.), Fisher Scientific (Pittsburgh, Pa.), and Alexis Biochemicals (Farmingdale, N.Y.), respectively. […] After the appropriate incubation time (6 or 18 hours), cell lysates were collected, protein quantified, and SDS-PAGE/western analysis was performed. In addition, for selected studies, RNA was isolated, quantified, and used for qPCR analysis.
# cleaved PARP = assay: Western analysis of PARP cleavage (early apoptosis marker); conditions: HEY; for PARP cleavage in As2O3-treated cells with added inhibitor: 18 hours
# Protocol: as §1, §2, §3
# SnoN RNA = assay: qPCR of SnoN RNA levels in ovarian cell lines; design: reduction of basal SnoN RNA levels / effect on basal SnoN RNA levels: unit of the concentration uncertain
# Protocol: RNA was isolated using the RNeasy Mini Kit (Qiagen, Valencia, Calif.) from normal, benign, stage I-IV ovarian patient samples and quantitative PCR was performed. A one-step RT-PCR Taqman master mix from Applied Biosystems (Foster City, Calif.) and primers for genes in the 3q26.2 amplicon were obtained using Genebank sequences as well as from Assays on Demand (Hs00180524_m1 (SnoN/SkiL)), with the following primers and probe sets.
# Primers/probe sequences for SnoN (Hs00180524_m1), TGFβRII (Hs00234253_m1), and LC3 (Hs00261291_m1) were obtained from Applied Biosystems (Assays by Design).
# mRNA levels were determined using the One-Step-Plus Applied Biosystems Detection System or ABI PRISM 7700 Sequence Detection System using β-actin as a reference. PCR conditions were as follows: stage I: 48° C. for 30 min; stage II: 95° C. for 10 min; stage III: [40 cycles] 95° C. for 15 s followed by 60° C. for 1 min Using the correlative method, RNA-fold change in expression was calculated as Ct of gene—Ct of β-actin to generate ΔCt from which ΔCt of the normal sample was subtracted. These values were then converted to log2 values.
# as §4, with “respectively. N-acetyl-L-cysteine (NAC; dissolved in media) and Bortezomib (PS-341; dissolved in DMSO) were obtained from Fisher Scientific. 3-Methyladenine (3-MA; dissolved in media) was obtained from MP Biomedicals (Solon, Ohio). Tiron (4,5-Dihydroxy-1,3-benzenedisulfonic acid, dissolved in media) was obtained from Fisher Scientific. zVAD-fmk (dissolved in DMSO) and bafilomycin A (dissolved in DMSO) was obtained from Axxora LLC (San Diego, Calif.).” for “respectively.”
# [4] = HEY and OVCA429, 18 hours, increasing doses
molecule,measurement,setting,value
17-allylaminogeldanamycin [17-AAG],SnoN/SkiL protein levels,SnoN; [4],slight decrease
same,reduction of cell growth (cellular viability),ovarian cancer cells,63%
same,MDS1/EVI1 and EVI1^Del190-515 protein,"[1]; 5 μM 17-AAG, 18 hour",reduced
same,wild type EVI1 protein,"[1]; 5 μM 17-AAG, 18 hour",not dramatically affected
same,protein levels of EVI1 forms,[1]; [4],slight decrease
same,"TGFβRII, SMAD2/3, and AKT protein",[2]; [4],more marked reductions
"Cn1cnc(N)c2ncnc1-2 [3-MA, 3-Methyladenine]",SnoN levels in As2O3-treated cells with added inhibitor,"SnoN; HEY, 18 hours",not dramatically altered
same,LC3 levels (LC3-II/LC3-I) in As2O3-treated cells with added inhibitor,[3],reduced
same,HSP27 levels in As2O3-treated cells with added inhibitor,HSP27,reduced dramatically
same,PARP cleavage in As2O3-treated cells with added inhibitor,cleaved PARP,further increased
CO/C1=C\C(C)=C\[C@@H](C)[C@@H](O)[C@@H](C)C/C(C)=C/C=C/[C@H](OC)[C@@H]([C@@H](C)[C@@H](O)[C@H](C)[C@@]2(O)C[C@@H](O)[C@H](C)[C@@H](C(C)C)O2)OC1=O [Bafilomycin A1],SnoN levels in As2O3-treated cells with added inhibitor,"SnoN; HEY, 18 hours",slightly reduced
same,LC3 levels (LC3-II/LC3-I) in As2O3-treated cells with added inhibitor,[3],increased
same,PARP cleavage in As2O3-treated cells with added inhibitor,cleaved PARP,increased
O=c1cc(N2CCOCC2)oc2c(-c3ccccc3)cccc12 [LY294002],reduction of basal SnoN RNA levels,"SnoN RNA; 50 (unit uncertain), 12 h post-treatment, OVCA429, HEY, T29, T80",50%
"CC(=O)N[C@@H](CS)C(=O)O [NAC, N-acetyl-L-cysteine]",SnoN expression in As2O3-treated cells with increasing doses of NAC,"SnoN; HEY, 18 hours",markedly reduced
same,"EVI1, TAK1, and TGFβRII protein expression in As2O3-treated cells with NAC","[2]; HEY, 18 hours",recovery
"CC(C)C[C@H](NC(=O)[C@H](Cc1ccccc1)NC(=O)c1cnccn1)B(O)O [PS-341, Bortezomib]",SnoN protein in drug-treated cells with added proteosome inhibitor,SnoN; combination with As2O3,further increased
same,EVI1 protein in As2O3-treated cells with added proteosome inhibitor,"[1]; combination with As2O3, HEY, OVCA429",recovered
same,TGFβRII protein in drug-treated cells with added proteosome inhibitor,[2]; combination with As2O3 (MG132: 6 hour drug treatment),did not appear to be recovered
N#CC(=C(/N)Sc1ccccc1N)/C(C#N)=C(\N)Sc1ccccc1N [U0126],effect on basal SnoN RNA levels,"SnoN RNA; 25 (unit uncertain), data not shown",not significant
COC(=O)C[C@H](NC(=O)[C@H](C)NC(=O)[C@@H](NC(=O)OCc1ccccc1)C(C)C)C(=O)CF [zVAD-fmk] (Cbz-Val-Ala-Asp(OMe)-CH2F),SnoN levels in As2O3-treated cells with added inhibitor,"SnoN; HEY, 18 hours",remained unchanged
same,LC3 levels (LC3-II/LC3-I) in As2O3-treated cells with added inhibitor,[3],remained unchanged
same,HSP27 levels in As2O3-treated cells with added inhibitor,HSP27,slightly decreased
same,PARP cleavage in As2O3-treated cells with added inhibitor,cleaved PARP,dramatically reduced
"EVI1 siRNA: Dharmacon custom siRNA against EVI1 Exon VII, SEQ ID 6 (ACUACGUCUUCCUUAAAUAUU; listed as RNA, chemistry not given here)",reduction of SnoN levels,"SnoN; absence and presence of As2O3 (6 and 18 h, 50 μM), HEY",> 50%
same,effect on As2O3-induced PARP cleavage,cleaved PARP; As2O3-treated,did not dramatically alter
TGF-β,SnoN protein levels in ovarian cancer cells,"SnoN; SKOV3, OVCA429, OVCAR8, HEY, between 1 and 3 h post stimulation",dramatic increase
same,SnoN protein levels in immortalized normal ovarian epithelial cells,"SnoN; T29 and T80, between 15 min and 1 h post-TGF-β stimulation (50 pM)",dramatic decrease
same,phospho-SMAD2 levels,"[2]; 1 h post stimulation, T29, T80, SKOV3, HEY, OVCA429, OVCAR8",markedly elevated
